“And” between values parts separate entries of the source, which are not always exact repeats. Equal values may be shown once.
Legend:
[1] = biological target: Lys-specific gingipain, Kgp; parameters: method as in PMID 15361547; settings: cited from earlier work
RgpB = biological target: T1, RgpB (Porphyromonas gingivalis, UniProt P95493); test: Screening of compound specificity: RgpB; type: biochemical; settings: 100 nM protease, 100 M excess of compound, FTC-casein
T1 construct: His; made in house
T1 sequence (P95493 230-736): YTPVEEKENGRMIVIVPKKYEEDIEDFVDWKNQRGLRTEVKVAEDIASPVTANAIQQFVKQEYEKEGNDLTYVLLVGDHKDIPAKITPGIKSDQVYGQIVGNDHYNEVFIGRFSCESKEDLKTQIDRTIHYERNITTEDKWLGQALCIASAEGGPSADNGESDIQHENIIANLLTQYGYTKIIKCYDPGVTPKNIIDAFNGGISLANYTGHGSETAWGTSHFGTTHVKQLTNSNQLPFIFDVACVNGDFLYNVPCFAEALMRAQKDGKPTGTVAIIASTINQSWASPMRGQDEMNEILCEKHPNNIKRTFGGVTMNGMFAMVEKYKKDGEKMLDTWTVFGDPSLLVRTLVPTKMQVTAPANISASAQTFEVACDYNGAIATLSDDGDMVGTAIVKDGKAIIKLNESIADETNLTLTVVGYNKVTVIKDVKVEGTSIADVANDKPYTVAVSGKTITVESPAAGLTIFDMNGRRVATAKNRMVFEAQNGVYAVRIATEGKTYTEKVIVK
Protocol: (§1) The residual proteolytic activity was determined employing Azocoll (12 mg/ml) or, for gingipains only, FTC-casein (50 µg/ml), as described above.

mirolase = test: Screening of compound specificity: mirolase; type: biochemical, Tannerella forsythia; settings: 100 nM protease, 100 M excess of compound, Azocoll
Protocol: as §1

mirolysin [2] = biological target: T2, mirolysin (Tannerella forsythia, UniProt A0A0F7IPS1); test: Determination of inhibition constant (Ki) and mode of inhibition (FTC-casein); type: biochemical; settings: for mode of inhibition: Lineweaver-Burk plot
T2 sequence (A0A0F7IPS1 entry or part of it): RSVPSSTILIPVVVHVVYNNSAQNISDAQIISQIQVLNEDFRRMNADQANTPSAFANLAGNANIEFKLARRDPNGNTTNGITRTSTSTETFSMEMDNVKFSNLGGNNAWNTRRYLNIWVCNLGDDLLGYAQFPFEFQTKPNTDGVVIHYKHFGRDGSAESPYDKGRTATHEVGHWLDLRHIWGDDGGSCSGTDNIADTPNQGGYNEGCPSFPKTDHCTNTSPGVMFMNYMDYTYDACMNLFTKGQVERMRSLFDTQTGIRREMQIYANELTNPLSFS
Protocol: After 15 min of incubation at 37 °C, 100 µl fluorogenic protein substrate FTC-casein was added at different concentrations (5–120 µg/ml), and the residual proteolytic activity was recorded. The mode of inhibition of target proteases by the compounds was determined graphically using the Lineweaver–Burk plot using Equation (2): (2) 1/V=Km/Vmax×1/[S]+1/Vmax where V is the reaction velocity, Vmax is the maximum V, Km is the Michaelis–Menten constant, and [S] is the substrate concentration. The Ki was determined using a macro for competitive inhibition from GraphPad Prism software (La Jolla, CA, USA) and Equation (3): (3) V=Vmax×[S]/Kmobs+[S]; Kmobs=Km×(1+[I]/Ki) where Kmobs is the Michaelis–Menten constant in the presence of inhibitor, and [I] is the inhibitor concentration.

Kgp = biological target: T3, Kgp (Porphyromonas gingivalis, UniProt B2RLK2); test: Screening of compound specificity: Kgp; type: biochemical; settings: 100 nM protease, 100 M excess of compound, FTC-casein
T3 construct: made in house
Protocol: as §1

forsilysin = test: Screening of compound specificity: forsilysin; type: biochemical, Tannerella forsythia; settings: 100 nM protease, 100 M excess of compound, Azocoll
Protocol: as §1

human thrombin = biological target: T4, human thrombin (Homo sapiens, UniProt P00734); test: Screening of compound specificity: thrombin; type: biochemical; settings: 100 nM protease, 100 M excess of compound, Azocoll
T4 construct: purchased Merck Sigma-Aldrich
Protocol: as §1

human plasmin = biological target: T5, human plasmin (Homo sapiens, UniProt P00747); test: Screening of compound specificity: plasmin; type: biochemical; settings: 100 nM protease, 100 M excess of compound, Azocoll
T5 construct: purchased Merck Sigma-Aldrich
T5 sequence (P00747 581-810 limits assumed): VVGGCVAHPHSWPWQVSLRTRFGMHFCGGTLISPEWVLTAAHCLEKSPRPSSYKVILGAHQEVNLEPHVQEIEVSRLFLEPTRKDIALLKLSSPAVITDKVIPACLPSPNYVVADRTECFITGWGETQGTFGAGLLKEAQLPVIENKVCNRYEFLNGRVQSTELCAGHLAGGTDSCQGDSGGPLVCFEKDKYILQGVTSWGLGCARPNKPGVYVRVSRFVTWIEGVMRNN
T5 sequence (P00747 97-580 partner limits assumed): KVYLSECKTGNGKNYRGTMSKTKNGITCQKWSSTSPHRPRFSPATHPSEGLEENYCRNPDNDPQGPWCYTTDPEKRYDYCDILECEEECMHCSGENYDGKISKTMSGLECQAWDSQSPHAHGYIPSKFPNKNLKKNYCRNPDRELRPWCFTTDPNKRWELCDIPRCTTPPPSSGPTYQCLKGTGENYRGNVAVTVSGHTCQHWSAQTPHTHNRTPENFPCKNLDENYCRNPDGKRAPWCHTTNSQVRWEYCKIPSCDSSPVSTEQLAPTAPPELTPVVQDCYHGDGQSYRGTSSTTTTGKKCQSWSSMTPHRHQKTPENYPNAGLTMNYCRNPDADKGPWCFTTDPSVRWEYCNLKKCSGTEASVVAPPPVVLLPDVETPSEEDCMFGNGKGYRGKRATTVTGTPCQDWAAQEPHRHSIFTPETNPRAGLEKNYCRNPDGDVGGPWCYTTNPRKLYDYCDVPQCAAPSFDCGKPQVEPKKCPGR
Protocol: as §1

karilysin = biological target: T6, karilysin (Tannerella forsythia, UniProt D0EM77); test: Screening of compound specificity: karilysin; type: biochemical; settings: 100 nM protease, 100 M excess of compound, Azocoll
T6 construct: made in house
T6 sequence (D0EM77 35-472): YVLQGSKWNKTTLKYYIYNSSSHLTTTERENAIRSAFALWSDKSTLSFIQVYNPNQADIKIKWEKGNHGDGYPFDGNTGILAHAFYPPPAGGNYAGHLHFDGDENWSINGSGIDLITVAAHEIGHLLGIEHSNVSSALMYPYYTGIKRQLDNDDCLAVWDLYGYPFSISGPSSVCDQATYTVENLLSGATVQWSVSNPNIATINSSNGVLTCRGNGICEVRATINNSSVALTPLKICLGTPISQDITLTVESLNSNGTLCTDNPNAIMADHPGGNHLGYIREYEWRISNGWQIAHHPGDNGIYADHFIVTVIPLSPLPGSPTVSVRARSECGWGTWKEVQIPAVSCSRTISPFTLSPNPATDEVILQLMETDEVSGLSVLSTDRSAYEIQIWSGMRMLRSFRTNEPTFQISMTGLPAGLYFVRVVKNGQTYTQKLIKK
Protocol: as §1

mirolysin [3] = biological target: T2, mirolysin; test: 2D NMR titration of 15N-labelled mirolysin (KD); type: binding; settings: KD by NMR titration, estimated from peaks in fast exchange, 298 K
Protocol: The custom-selected Maybridge diversity library of 1500 fragments was screened using the saturation transfer difference (STD) ligand-based approach, with fragments pooled into cocktails of five fragments each. STD spectra were recorded at a concentration of 10 µM mirolysin, with the final concentration of each fragment in the sample at 1 mM. D6-DMSO was used for the lock signal. STD experiments used alternating on- and off-resonance saturation (2s saturation, Gaussian pulse, +0.6 ppm, −5 ppm, 128 scans) with water suppression using a double-pulsed-field gradient spin-echo (DPFGSE) watergate W5 double-echo sequence[32]^,[33]. Spectra were compared with a reference containing d6-DMSO only. […] Hits identified using STD–NMR, based on the intensity ratio of ligand signals between the STD experiment and a 1D reference spectrum, were validated using ^1H,^15N heteronuclear single quantum coherence (HSQC) experiments with water flip back and watergate water suppression[34]^,[35], with spectra assessed for chemical shift perturbations (CSPs) relative to a control containing d6-DMSO. […] Spectra were recorded with 40 scans, and a ^1H spectral width of 9615.4 Hz and a ^15N spectral width of 2128.9 Hz, with 2048 and 256 complex points, respectively. All experiments were recorded at 298 K using a Bruker Avance 600 MHz spectrometer (^1H frequency, 600 MHz) equipped with a 5 mm QCI cryoprobe.

mirolysin [4] = biological target: T2, mirolysin; test: Screening round II: inhibitory activity of the 21 fragments against mirolysin (FTC-casein); type: biochemical; settings: molar ratio 50:1 (compound:enzyme), read-out: reduction of mirolysin activity (screening round II)
Protocol: (§2) Mirolysin activity was routinely determined in assay buffer (50 mM Tris, 150 mM NaCl, 5 mM CaCl2, 0.02% NaN3, pH 7.5) supplemented with 0.05% Pluronic F-127, employing Azocoll or FTC-caseins as a substrate. Briefly, an Azocoll suspension was added to the sample in Eppendorf tubes and vigorously shaken for 15 min–2 h at 37 °C. Undigested Azocoll was removed by centrifugation (16,100 × g, 5 min, 4 °C), and the absorbance at 410 nm was measured using a Sunrise absorbance microplate reader (Tecan, Männedorf, Switzerland). In the case of FTC-casein, analysed samples were transferred into wells of a black microtiter plate (Nunc, Roskilde, Denmark), and then the FTC-casein solution was added. Proteolytic activity was recorded as an increase in fluorescence (excitation/emission = 485/538 nm) over time using a SpectraMax Gemini EM reader (Molecular Devices, San Jose, CA, USA).
Mirolysin (40 nM) was mixed with each of the 21 compounds (2 µM) (Supplementary Table 1) in assay buffer (50 mM Tris, 150 mM NaCl, 5 mM CaCl2, 0.02% NaN3, 0.05% Pluronic F-127, pH 7.5) in a 96-well plate (total volume, 100 µl). After 15 min at 37 °C, 100 µl of the substrate solution FTC-casein (100 µg/ml) was added, and substrate hydrolysis was monitored. The percentage of inhibition was determined relative to the sample containing the enzyme without any compound added (control sample). […]

mirolysin [5] = biological target: T2, mirolysin; test: Screening of compound specificity: mirolysin; type: biochemical; settings: read-out: decrease in mirolysin activity
Protocol: as §1

bovine trypsin = biological target: T7, bovine trypsin (Bos taurus, UniProt P00760); test: Screening of compound specificity: trypsin; type: biochemical; settings: 100 nM protease, 100 M excess of compound, Azocoll
T7 construct: purchased Merck Sigma-Aldrich
T7 sequence (P00760 24-246): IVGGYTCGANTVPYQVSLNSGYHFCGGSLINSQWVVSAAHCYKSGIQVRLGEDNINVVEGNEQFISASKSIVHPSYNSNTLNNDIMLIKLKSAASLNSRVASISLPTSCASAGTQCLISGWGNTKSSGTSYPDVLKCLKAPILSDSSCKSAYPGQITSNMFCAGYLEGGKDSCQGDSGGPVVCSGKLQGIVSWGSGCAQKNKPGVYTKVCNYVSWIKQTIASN
Protocol: as §1

mirolysin [6] = biological target: T2, mirolysin; test: Determination of KD by microscale thermophoresis; type: binding
Protocol: The Monolith NT.115 instrument (NanoTemper) was used to analyse binding interactions between mirolysin and compounds 9, 10, and 21. Lysine residues of mirolysin were fluorescently labelled with the Monolith NT Protein Labelling Kit RED-NHS-Red dye (NanoTemper), strictly according to the manufacturer’s instruction (a 7 M excess of dye was used). Compounds at concentrations ranging from 1.5 to 25 000 nM were incubated for 5 min at 20 °C with 20 nM mirolysin. Experiments were performed in 0.1 M Tris, 0.15 M NaCl, 5 mM CaCl2, 0.05% Pluronic-F127, 0.02% NaN3, pH 7.5. Samples were loaded into Monolith NT.115 Standard Treated glass capillaries (NanoTemper), and an initial fluorescence measurement followed by a thermophoresis measurement was carried out using 80% LED power and high microscale thermophoresis (MST) power. KD values were calculated using MO. Affinity Analysis software (NanoTemper). Each experiment was performed in triplicate.

mirolysin [7] = biological target: T2, mirolysin; test: Dose-dependent inhibition of mirolysin (Azocoll); type: biochemical
Protocol: as §2
Mirolysin (0.1 µM) was incubated with increasing concentrations of compounds (0–100 µM) in 50 µl assay buffer (50 mM Tris, 0.15 M NaCl, 5 mM CaCl2, 0.02% NaN3, pH 7.5) for 15 min at 37 °C, before 200 µl Azocoll suspension (15 mg/ml in assay buffer) was added.

promirolysin (proM^wt) = test: Effect of compounds on promirolysin autoprocessing (activation in cis); type: biochemical, Tannerella forsythia
Protocol: ProM^wt (70 µM) was activated at 37 °C in 5 mM Tris, 50 mM NaCl, 0.02% NaN3, pH 8.0, alone or in the presence of a […] excess of different compounds. At specific time points, aliquots were withdrawn and analysed by SDS–PAGE (10% gels; 4 µl sample, preincubated with 1:1 (vol:vol) of 20 mM 1,10-phenanthroline for 5 min at room temperature), and measured in a proteolytic activity assay, employing FTC-casein (25 µg/ml) as a substrate.

[8] = biological target: Arg-specific gingipains, Rgp; parameters: method as in PMID 15361547; settings: cited from earlier work
[9] = […] excess of compound, FTC-casein

SMILES: CN(NC(=O)CC[C@H](NC(=O)OCc1ccccc1)C(=O)N[C@@H](CCCCN)C(=O)C(=O)NCc1ccccc1)c1ccccc1 [Kyt-36]
- Ki [1]: 75 pM

SMILES: NCc1cccc(-c2ccco2)c1 [cpd 10]
- effect on RgpB activity (RgpB): almost completely unaffected
- effect on mirolase activity (mirolase): almost completely unaffected
- Ki (mirolysin [2]): 22 µM
- mode of inhibition (mirolysin [2]): reversible competitive inhibitors
- effect on Kgp activity (Kgp): almost completely unaffected
- effect on forsilysin activity (forsilysin): almost completely unaffected
- effect on thrombin activity (human thrombin): almost completely unaffected
- effect on plasmin activity (human plasmin): almost completely unaffected
- effect on karilysin activity (karilysin): almost completely unaffected
- Kd (mirolysin [3]): 278 µM
- inhibition at 2 µM (mirolysin [4]): 10 to 20%
- inhibition at 10 µM (mirolysin [5]): 20%
- effect on trypsin activity (bovine trypsin): almost completely unaffected
- Kd (mirolysin [6]): 9.7 µM
- IC50 (mirolysin [7]): 6.6 µM

SMILES: NCc1cccc2nsnc12 [cpd 9]
- effect on RgpB activity (RgpB): almost completely unaffected
- effect on RgpB activity (RgpB; listed as Cpd 9): did not affect
- effect on mirolase activity (mirolase): almost completely unaffected
- effect on mirolase activity (mirolase; listed as Cpd 9): did not affect
- Ki (mirolysin [2]): 3.2 µM
- mode of inhibition (mirolysin [2]): reversible competitive inhibitors
- effect on Kgp activity (Kgp): almost completely unaffected
- effect on Kgp activity (Kgp; listed as Cpd 9): did not affect
- effect on forsilysin activity (forsilysin): almost completely unaffected
- effect on forsilysin activity (forsilysin; listed as Cpd 9): did not affect
- effect on thrombin activity (human thrombin): almost completely unaffected
- effect on thrombin activity (human thrombin; listed as Cpd 9): did not affect
- effect on plasmin activity (human plasmin): almost completely unaffected
- effect on plasmin activity (human plasmin; listed as Cpd 9): did not affect
- effect on karilysin activity (karilysin): almost completely unaffected
- effect on karilysin activity (karilysin; listed as Cpd 9): did not affect
- Kd (mirolysin [3]): 72.2 µM and 72 µM
- inhibition at 2 µM (mirolysin [4]): 10 to 20%
- inhibition at 10 µM (mirolysin [5]): 50%
- effect on trypsin activity (bovine trypsin): almost completely unaffected
- effect on trypsin activity (bovine trypsin; listed as Cpd 9): did not affect
- effect on proteolytic activity in aliquots during proM^wt activation (promirolysin (proM^wt); [9]): significantly decreased
- reduction of mirolysin activity after 216 h of proM^wt activation (promirolysin (proM^wt); [9]): 30%
- effect on proM^wt maturation (35 kDa zymogen to 31 kDa form, SDS-PAGE) (promirolysin (proM^wt); proM^wt 70 µM, 50 M excess of compound, 37 °C, 216 h): significantly slowed
- time to complete proM^wt maturation (promirolysin (proM^wt); proM^wt 70 µM, 50 M excess of compound, 37 °C, SDS-PAGE): > 216 h
- Kd (mirolysin [6]): 1.1 µM
- IC50 (mirolysin [7]): 2.3 µM

SMILES: CN(C)C(=O)[C@H](CCCCN)NC(=O)C(=O)[C@H](CCCN=C(N)N)NC(=O)[C@H](CCCCN)NC(=O)OCc1ccccc1 [Kyt-1]
- Ki [8]: 0.00013 µM
